Laboratory results reported in patent US20030021782A1, “Chlamydia infection” (priority 2001, published 2003).

System: C. pneumoniae strain AR-39 in HMEC-1 cells
Experiment: Assay for growth (infectivity) enhancing activity: C. pneumoniae inclusion counts in HMEC-1 cell culture
Type: cell-based
Settings: for enhancement of growth of C. pneumoniae strain AR-39 in HMEC-1 cells: added to culture medium at 1, 5 and 10 ng/mL, 3 days incubation
Method: To assay for growth enhancing activity, conditioned medium, fractions of conditioned medium, insulin-like growth factor-1 (IGF-1) and IGF-2 were tested in HMEC-1 cell culture for enhanced susceptibility to C. pneumoniae. HMEC-1 cells were trypsinized from stock cultures and plated to achieve a cell monolayer in 24 h in 24-well culture plates. A 12 mm diameter glass coverslip was placed in each well for growing cells for ease of staining for microscopic observation and counting inclusions for assaying titers. For inoculation of cell culture, the culture fluid was removed and the cell monolayer washed three times with Hank's balanced salt solution. Two-tenth mL of inoculum were added per well and the plate was centrifuged for 1 h at 700 to 800× g at 25° C. After centrifugation, the inocula were removed, 1 mL of specified culture medium was added, and the plates were incubated in a CO2 incubator at 35° C. for 3 days. After incubation, coverslips were removed, fixed with methanol and stained with a Chlamydia genus-specific monoclonal antibody conjugated with fluorescein isothiocyanate. Inclusions were counted in 30 random fields at ×400 magnification. The infectivity titers were expressed as inclusion forming units (ifus) per milliliter, which had been adjusted for dilution factor and inoculum size (Furness et al., J. Gen Micro. 23:213-9, 1960). Triplicate coverslips were counted in each experiment. Experiments were repeated 2 or 3 times.
Characterization of Chlamydial growth enhancing factors was carried out as follows. Conditioned medium of a one day old culture of U937 cells in RPMI supplemented with 2% fetal calf serum was used. Conditioned medium was heated at 70° C. for 2 h and tested for growth enhancing activity against AR-39 in HMEC-1 cells. An equal volume of conditioned medium was mixed with fresh endothelial basal medium containing 2% fetal calf serum for culturing infected HMEC-1 cells.
For determining molecular size, one day old conditioned medium of U937 cells cultured in serum-free macrophage culture medium was fractionated into molecular weight ranges of larger than 30,000, 30,000 to 10,000, 10,000 to 5,000 and smaller than 5,000 using three different pore size filters, Biomax-30, Biomax-10 and Biomax-5 ultrafilters (Millipore, Bedford, Mass.) with the molecular weight cut-off of 30,000; 10,000; and 5,000, respectively. For size fractionation, a starting volume of 200 mL of conditioned medium was used. Each fraction was concentrated to 2 mL (a 100× concentration). The remaining filtrate which had been passed through the 5,000 molecular weight pore size filter also was saved for testing. That fraction and the starting conditioned medium were tested without concentration. […]

Substance: insulin-like growth factor-1 [IGF-1]
- enhancement of growth of C. pneumoniae strain AR-39 in HMEC-1 cells: not

Substance: insulin-like growth factor-2 [IGF-2]
- enhancing activity (increase) (0.5 ng/mL, p<0.05, N=3): 35%
- enhancing activity (increase) (5 ng/mL, p<0.001): 256%
- enhancement of growth of C. pneumoniae strain AR-39 in HMEC-1 cells: enhanced the growth
